Measured values reported in PMC7696741, “Synthesis, Characterization and Assessment of the Antioxidant Activity of Cu(II), Zn(II) and Cd(II) Complexes Derived from Scorpionate Ligands” (Molecules, 2020).
Where two headings read alike, the source gives them in different places.

Assays:
[1] = ABTS radical scavenging activity; assay type: biochemical; details: ABTS+· in methanol, 10 min dark, room temperature, absorbance 630 nm
Procedure: (§1) We have carried out both enzymatic and non-enzymatic assays to evaluate the antioxidant properties of all the synthesized scorpionate complexes of Cu(II), Zn(II) and Cd(II) (1–9). All complexes were used at an initial concentration of 2.5 mM diluted in methanol.
Total antioxidant activity was assessed as a measure of radical scavenging activity of the complexes examined against the cationic radical ABTS^+. The method is valid for both hydrophilic and hydrophobic antioxidants. The working solution is produced by the oxidation of an initial solution of ABTS, which is oxidized to ABTS^+· through the reaction with K2S2O8 (2.45 mM) and left in the dark for 12 h. After incubation, the ABTS^+· solution is diluted with methanol to obtain an absorbance of 0.706 ± 0.001 units at 734 nm, which is used as a solution for the analysis of scavenger activity.
Radical scavenging ability is measured with a modified method described initially by Re et al. for the application of a microplate 96 wells. Compounds or standards in methanol were diluted in series in the 96 well plate, as previously described. Trolox was used as a control and was loaded into the plate with the same method and dilution of the samples. The reaction is started with the addition of 200 μL of the ABTS^+· solution (final volume in the wells, 250 μL). The reaction mixture is allowed to stand in the dark for 10 min at room temperature, and the absorbance at 630 nm is measured (Multiskan JX, Thermo Labsystems Oy, Vantaa, Finland). The radical scavenging activity is estimated through the absorbance decrease at 630 nm and can be expressed as the equivalent Trolox.

[2] = Superoxide radicals scavenging activity (PMS-NADH/NBT system); assay type: biochemical; details: for IC50: PMS-NADH/NBT, Tris-HCl pH 8.0, absorbance 560 nm, read-out: Oxygen Species Radicals IC50, O2^−
Procedure: as §1
The scavenging activity of superoxide radicals was determined by the method of Liu and Ng, slightly modified by Kang and Lee. Superoxide radicals are generated in the phenazine methosulfate-nicotinamide adenine dinucleotide (PMS-NAD) system, responsible for the oxidation of NADH (reduced form of NAD) that was analyzed by reducing the nitro blue tetrazolium chloride NBT in a microplate assay.
In a 96 well plate, samples or control were subjected to a serial dilution with 20 mM Tris-HCl (pH 8.0). Superoxide radicals are generated by adding in 200 μL of 20 mM Tris-HCl (pH 8.0), containing 78 mM NADH, NBT 50 mM to each well and 10 μL are added to the various samples of PMS 10 mM. The reaction between superoxide radicals and NBT develops a blue color, whose intensity decreases proportionally in the presence of the antioxidant compound. The change in absorbance in the various wells is measured at 560 nm with a microplate reader (Molecular Devices, Sunnyvale, CA, USA). L-ascorbate was used as a positive control. The interaction relationship with the superoxide radical (%) was calculated using the following formula:superoxide radical (%) = ((A − A1)/A) × 100 where A is the absorbance of the positive control, and A1 is the absorbance of the test samples.

[3] = DPPH radical scavenging activity; assay type: biochemical; details: DPPH 100 μM in methanol, 37 °C, absorbance 490 nm
Procedure: as §1
The antioxidant properties of the compounds or control substances have been measured by DPPH, which is able to react with various natural or synthetic antioxidants. A dose response curve was plotted to determine the IC50 values, and the following formula was used to calculate the percentage of radical scavenging:Radical scavenging % = [(A0 − Ac)/A0] × 100 where A0 is the absorbance of the control sample, containing the reagents except the test substance, and Ac is the absorbance of the solution of the various complexes and of the control measured after 30 min of incubation at 37 °C. Any determination is performed in triplicate.
In order to determine the DPPH radical scavenging activity of different scorpionate complexes, the compounds or standards in methanol were diluted in series in the 96 well plate with a flat bottom. The solvent used is usually the same used to dissolve the samples. In various wells containing the compounds and standards, 200 μL of DPPH in methanol solution (100 μM) were added to reach a final volume of 250 μL in all wells. After incubation at 37 °C for 20 min, the absorbance of samples was determined at 490 nm (Multiskan JX, Thermo Labsystems Oy, Vantaa, Finland). Trolox was used as a control and was loaded into the plate with the same method and dilution of the samples.

[4] = Hydroxyl radicals scavenging activity (L-ascorbic acid-CuSO4 / cytochrome c); assay type: biochemical; details: L-ascorbic acid-CuSO4, cytochrome c oxidation, pH 7.4, 550 nm; read-out: Oxygen Species Radicals IC50, OH
Procedure: as §1
The scavenging activity of superoxide radicals was determined by the method of Liu and Ng, slightly modified by Kang and Lee. Hydroxyl radicals, generated in the L-ascorbic acid-CuSO4 system, with the reduction of Cu^2+, were analyzed by the oxidation of cytochrome c in 96 microplate wells. The hydroxyl radicals were generated in 200 μL of 10 mM buffer sodium phosphate (pH 7.4), containing […], 12 μM reduced cytochrome c and the samples to be analyzed in different concentrations. The reduction of cytochrome c is produced with the addition of an excess of dithiothreitol to a solution of cytochrome c and followed by Sephadex G-15 chromatography (bed volume, 10 mL) to remove the excess of dithiothreitol.
The compounds or standards in methanol were diluted in series in a 96-well flat-bottomed plate. Stock solution was prepared in phosphate buffer (pH 7.4) containing 100 μM L-ascorbic acid and 100 μM CuSO4. Then, 200 μL of this solution was added to each well and, finally, 10 μL of 120 μM reduced cytochrome c, was added to the plate and was left to incubate for 20 min at room temperature. The change in absorbance, caused by the oxidation of cytochrome c, was measured at 550 nm with a microplate reader (Molecular Devices, Sunnyvale, CA, USA). A thiourea solution (500 μM) was used as a positive control. The scavenging activity of hydroxyl radicals of 500 […] solution of thiourea was taken as 100%. The scavenging activity of hydroxyl radicals has been calculated using the following formula:hydroxyl scavenging radicals (%) = (A − A0)/(AT − A0) × 100 where A is the absorbance of the samples, and AT and A0 is the absorbance of the thiourea and the control, respectively.

[5] = Overall evaluation of scavenging (antioxidant) activity, all radical assays; assay type: biochemical; details: conclusions, all radical assays together
Procedure: as §1

[6] = Nitric oxide scavenging activity (sodium nitroprusside / Griess reagent); assay type: biochemical; details: sodium nitroprusside in PBS, light, 150 min, 577 nm, read-out: Oxygen Species Radicals IC50, NO
Procedure: as §1
In order to determine the scavenging activity of the metal complexes against NO radicals, samples were added to a 96-well plate dish with a flat bottom, and were serially diluted by the same procedure used in the previous assays. In all wells, 100 μL of PBS and 50 μL of sodium nitroprusside dissolved in saline phosphate buffer (PBS), were added. The plate with the samples was incubated in the presence of light at room temperature for 150 min. Finally, an equal volume of 50 μL of Griess reagent was added to each well in order to measure the nitrite content. The plate was incubated at room temperature for 10 min until chromophore formation, and the absorbance was measured at 577 nm in a microplate reader (Molecular Devices, Sunnyvale, CA, USA).

[7] = Hydrogen peroxide radicals scavenging activity; assay type: biochemical; details: hydrogen peroxide in PBS, 10 min, 230 nm; read-out: Oxygen Species Radicals IC50, OOH
Procedure: as §1
In order to determine the scavenging activity of H2O2 of different complexes or standards in methanol, the compounds were diluted in series in a 96-well flat-bottom plate with the same procedure used in previous assays. Then, 200 μL of peroxide solution was added to the various wells hydrogen in PBS (final volume, 250 μL). After 10 min of incubation, the absorbance was measured at 230 nm with a microplate reader.

[8] = Solubility of the isolated complexes; assay type: physicochemical; details: for Solubility in chlorinated solvents, alcohols, acetonitrile, dimethylsulfoxide and dimethylformamide: organic solvents as listed
[9] = Air and moisture stability of the isolated powders; assay type: physicochemical; details: pure powders
[10] = read-out: SOD activity IC50, cited from earlier work

Row | Compound | IC50 [1] [mM] | IC50 [2] [mM] | SOD-mimic activity, times less than native bovine Cu-Zn-SOD ([2]; ratio of superoxide IC50 to native bovine Cu-Zn-SOD (IC50 = 0.48 μM)) [times] | IC50 [3] [mM] | IC50 [4] [mM] | Antioxidant (scavenging) activity, overall verdict [5] | IC50 [6] [mM] | IC50 [7] [mM] | Solubility in chlorinated solvents, alcohols, acetonitrile, dimethylsulfoxide and dimethylformamide [8] | Solubility in water [8] | Stability to air and moisture [9] | Solubility in most organic solvents [8] | IC50 ([10]; reported scorpionate complex ref 21) [mM] | IC50 ([10]; reported scorpionate complex ref 20) [mM] | IC50 ([10]; native enzyme, literature value ref 47) [mM]
1 | CC(C)(C)c1cc[nH]n1.CC(C)(C)c1cc[nH]n1.CC(C)(C)c1cc[nH]n1.[Cl][Cu][Cl] [Complex 3, [Cu(Hpz^t^Bu)3Cl2]] | 0.0972 ± 0.0038 | 0.233 ± 0.004 | 500 | 0.0766 ± 0.0025 | > 5 | moderate antioxidant activity | > 5 | > 5 | soluble | insoluble | – | – | – | – | –
2 | Cc1ccc2c(cnn2[BH-](n2ncc3cc(C)ccc32)n2ncc3cc(C)ccc32)c1.Cc1ccc2c(cnn2[BH-](n2ncc3cc(C)ccc32)n2ncc3cc(C)ccc32)c1.ClCCl.[Zn+2] [Complex 4, [Zn(Tp^4Bo,5Me)2]⋅CH2Cl2] | – | – | – | – | – | – | – | – | soluble | insoluble | air and moisture stable | good solubility | – | – | –
3 | ClCCl.ClCCl.ClCCl.ClCCl.[Zn+2].c1ccc2c(c1)CCc1cn([BH-](n3cc4c(n3)-c3ccccc3CC4)n3cc4c(n3)-c3ccccc3CC4)nc1-2.c1ccc2c(c1)CCc1cn([BH-](n3cc4c(n3)-c3ccccc3CC4)n3cc4c(n3)-c3ccccc3CC4)nc1-2 [Complex 5, [Zn(Tp^a)2]⋅4CH2Cl2] | – | – | – | – | – | moderate antioxidant activity | – | – | soluble | insoluble | air and moisture stable | good solubility | – | – | –
4 | Cc1ccc2c(cnn2[BH-](n2ncc3cc(C)ccc32)n2ncc3cc(C)ccc32)c1.Cc1ccc2c(cnn2[BH-](n2ncc3cc(C)ccc32)n2ncc3cc(C)ccc32)c1.[Cd+2] [Complex 7, [Cd(Tp^4Bo,5Me)2]] | > 5 | > 5 | – | > 5 | > 5 | – | > 5 | > 5 | soluble | insoluble | air and moisture stable | good solubility | – | – | –
5 | CC(C)(C)c1cc[nH]n1.CC(C)(C)c1ccn([BH2-]n2ccc(C(C)(C)C)n2)n1.[Cl][Cd+] [Complex 9, [Cd(Bp^t^Bu)(Hpz^t^Bu)Cl]] | 0.151 ± 0.0042 | > 5 | – | > 5 | > 5 | moderate antioxidant activity | > 5 | > 5 | soluble | insoluble | – | – | – | – | –
6 | Cc1c(C)c2c(c(C)c1O)CCC(C)(C(=O)O)O2 (stereo not shown) [Trolox, reference compound] | 0.00401 ± 0.0007 | > 5 | – | 0.0199 ± 0.0015 | > 5 | – | > 5 | > 5 | – | – | – | – | – | – | –
7 | O=C(O)c1ccc(P(c2ccccc2)c2ccccc2)cc1.O=C(O)c1ccc(P(c2ccccc2)c2ccccc2)cc1.[Cu+].c1cnn([B-](n2cccn2)(n2cccn2)n2cccn2)c1 [[Cu(PPh2(4-C6H4COOH))2(pzTp)]] | – | – | – | – | – | – | – | – | – | – | – | – | 0.0046 | – | –
8 | Brc1cnn([BH-](n2cc(Br)cn2)n2cc(Br)cn2)c1.O=C(O)c1ccc(P(c2ccccc2)c2ccccc2)cc1.[Cu+] [[Cu(PPh2(4-C6H4COOH))(Tp^4Br)]] | – | – | – | – | – | – | – | – | – | – | – | – | – | 0.0062 | –
9 | [Zn(Tp^t^Bu)Cl] [Complex 6] | 0.0579 ± 0.0034 | > 5 | – | > 5 | > 5 | – | > 5 | > 5 | soluble | insoluble | – | – | – | – | –
10 | native bovine Cu-Zn-SOD: native bovine copper-zinc superoxide dismutase enzyme | – | – | – | – | – | – | – | – | – | – | – | – | – | – | 0.00048
